In patent US8642609B2, “Modulators of ATP-binding cassette transporters” (Vertex Pharmaceuticals Incorporated, priority 2003, dated 2014):

Target: T1, ΔF508-CFTR (Homo sapiens, UniProt P13569, DEL508-508)
T1 construct: expressed in transfected cells
Test: Membrane potential optical assay (FRET/VIPR), identification of correction compounds
Type: cell-based
Details: for Emax: relative efficacy
Method in brief: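 Corrector screen: FRET voltage-sensor dyes (CC2-DMPE donor, DiSBAC2(3)) report Cl^− efflux-driven depolarization after 10 μM forskolin and 20 μM genistein in Cl^−-free medium. Beforehand, ΔF508-CFTR NIH3T3 fibroblasts received compound for 16 hrs at 37° C; temperature-corrected cells (27° C) served as positive control.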

T1 sequence (P13569 with tags, fused parts or gaps DEL508-508): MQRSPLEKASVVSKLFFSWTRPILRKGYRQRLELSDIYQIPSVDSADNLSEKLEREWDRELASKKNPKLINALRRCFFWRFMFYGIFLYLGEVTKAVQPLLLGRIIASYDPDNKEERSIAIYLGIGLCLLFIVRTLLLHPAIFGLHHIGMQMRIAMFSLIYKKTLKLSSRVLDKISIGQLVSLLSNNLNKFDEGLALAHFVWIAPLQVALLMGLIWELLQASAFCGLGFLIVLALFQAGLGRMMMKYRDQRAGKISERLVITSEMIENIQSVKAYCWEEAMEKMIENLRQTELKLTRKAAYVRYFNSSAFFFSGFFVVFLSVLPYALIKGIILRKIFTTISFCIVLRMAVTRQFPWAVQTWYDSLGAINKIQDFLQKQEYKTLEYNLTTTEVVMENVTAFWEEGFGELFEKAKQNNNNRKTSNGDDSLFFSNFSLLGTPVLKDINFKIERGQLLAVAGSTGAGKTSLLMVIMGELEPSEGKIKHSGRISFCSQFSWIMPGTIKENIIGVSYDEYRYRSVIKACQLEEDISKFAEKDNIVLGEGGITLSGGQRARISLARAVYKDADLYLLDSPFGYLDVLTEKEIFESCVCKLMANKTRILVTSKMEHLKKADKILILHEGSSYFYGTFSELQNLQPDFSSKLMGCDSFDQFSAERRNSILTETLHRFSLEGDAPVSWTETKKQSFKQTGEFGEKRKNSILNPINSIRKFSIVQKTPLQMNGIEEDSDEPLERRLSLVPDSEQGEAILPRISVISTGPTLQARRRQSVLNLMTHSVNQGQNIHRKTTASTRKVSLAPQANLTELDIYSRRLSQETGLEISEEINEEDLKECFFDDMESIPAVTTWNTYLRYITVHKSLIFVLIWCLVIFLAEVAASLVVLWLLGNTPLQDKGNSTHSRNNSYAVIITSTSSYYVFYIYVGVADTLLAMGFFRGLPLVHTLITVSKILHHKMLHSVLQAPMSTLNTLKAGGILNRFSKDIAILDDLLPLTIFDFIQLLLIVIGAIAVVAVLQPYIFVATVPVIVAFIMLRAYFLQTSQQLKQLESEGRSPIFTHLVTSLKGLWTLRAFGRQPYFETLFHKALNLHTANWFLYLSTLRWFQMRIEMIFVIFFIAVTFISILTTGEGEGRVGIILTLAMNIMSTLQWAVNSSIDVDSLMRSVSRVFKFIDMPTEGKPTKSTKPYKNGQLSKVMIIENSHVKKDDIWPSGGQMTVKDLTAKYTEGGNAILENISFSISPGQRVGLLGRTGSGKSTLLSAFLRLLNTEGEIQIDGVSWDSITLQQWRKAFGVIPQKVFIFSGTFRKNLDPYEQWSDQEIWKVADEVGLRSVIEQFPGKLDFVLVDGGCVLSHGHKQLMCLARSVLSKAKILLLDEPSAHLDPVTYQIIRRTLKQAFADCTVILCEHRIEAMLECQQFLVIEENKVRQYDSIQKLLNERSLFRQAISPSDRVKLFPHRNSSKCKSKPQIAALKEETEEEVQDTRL

## CC(c1nc2cc(Cl)ccc2c(=O)n1C)N1CCN(C(=O)c2cccc(C(F)(F)F)c2)CC1 (stereo not shown) [compound 101]
  EC50: 10 to 25 µM
  Emax: 25 to 100%

## CC(NC[C@@H]1CCCCN1S(=O)(=O)c1ccc(Cl)cc1)c1nc2ccccc2c(=O)n1C (stereo partly shown) [compound 214]
  EC50: 25 to 60 µM
  Emax: < 25%

## Cc1cccc(S(=O)(=O)N2CCN(C(C)c3nc4cc(Cl)ccc4c(=O)n3C)CC2)c1 (stereo not shown) [compound 96]
  EC50: < 10 µM
  Emax: 25 to 100%

## CNC(=O)c1cnc(C(C)N2CCN(S(=O)(=O)c3ccc(OC)cc3)CC2)nc1N1CCCCC1 (stereo not shown) [compound 357]
  EC50: 25 to 60 µM
  Emax: 25 to 100%

## C#Cc1ccc(S(=O)(=O)N2CCN(C(C)c3nc4ccccc4c(=O)n3C)CC2)cc1 (stereo not shown) [compound 354]
  EC50: 10 to 25 µM
  Emax: 25 to 100%

## CCCOc1nc(C(C)N2CCN(S(=O)(=O)c3ccc(OC)cc3)CC2)nc2ccccc12 (stereo not shown) [compound 189]
  EC50: 10 to 25 µM
  Emax: > 100%

## CC(C)c1ccc(S(=O)(=O)N2CCN(C(C)c3nc4ccccc4c(=O)n3C)CC2)cc1 (stereo not shown) [compound 273]
  EC50: 25 to 60 µM
  Emax: < 25%

## COc1ccc(S(=O)(=O)N2CCN(C(C)c3nc(OC(C)C)c4ccccc4n3)CC2)cc1 (stereo not shown) [compound 190]
  EC50: < 10 µM
  Emax: > 100%

## CC(c1nc2cc(Cl)ccc2c(=O)n1C)N1CCN(S(=O)(=O)c2cccc(Cl)c2)CC1 (stereo not shown) [compound 97]
  EC50: < 10 µM
  Emax: 25 to 100%

## CC(c1nc2cc(Cl)ccc2c(=O)n1C)N1CCN(S(C)(=O)=O)CC1 (stereo not shown) [compound 108]
  EC50: 10 to 25 µM
  Emax: < 25%

## CC(NC1CCN(S(=O)(=O)c2ccc(Br)cc2)C1)c1nc2ccccc2c(=O)n1C (stereo not shown) [compound 226]
  EC50: 25 to 60 µM
  Emax: 25 to 100%

## CCCn1c(C(C)N2CCN(C(=O)Nc3ccc(F)cc3F)CC2)nc2ccccc2c1=O (stereo not shown) [compound 24]
  EC50: 25 to 60 µM
  Emax: 25 to 100%

## COc1ccc(S(=O)(=O)N2CCN(C(C)c3ncc(CO)c(N4CCCCC4)n3)CC2)cc1 (stereo not shown) [compound 359]
  EC50: 25 to 60 µM
  Emax: 25 to 100%

## COc1ccc(S(=O)(=O)N2CCN(C(C)c3nc(N4CCC(N5CCCCC5)CC4)c4ccccc4n3)CC2)cc1 (stereo not shown) [compound 317]
  EC50: 25 to 60 µM
  Emax: < 25%

## CC(c1nc2ccccc2c(=O)n1C)N1CCCNCC1 (stereo not shown) [compound 184]
  EC50: 25 to 60 µM
  Emax: < 25%

## COc1ccc(S(=O)(=O)N2CCN(C(C)c3nc(N4CCN(c5ccccc5)CC4)c4ccccc4n3)CC2)cc1 (stereo not shown) [compound 390]
  EC50: < 10 µM
  Emax: > 100%

## CC(c1nc2ccccc2c(=O)n1C)N1CCN(S(=O)(=O)c2ccc(C#N)cc2)CC1 (stereo not shown) [compound 250]
  EC50: 25 to 60 µM
  Emax: 25 to 100%

## CC(Nc1ccc(NS(=O)(=O)c2ccc(Br)cc2)cc1)c1nc2ccccc2c(=O)n1C (stereo not shown) [compound 309]
  EC50: < 10 µM
  Emax: 25 to 100%

## CC(c1nc2cccc(Cl)c2c(=O)n1C)N1CCN(S(=O)(=O)c2ccccc2)CC1 (stereo not shown) [compound 103]
  EC50: 10 to 25 µM
  Emax: < 25%

## COc1ccc(S(=O)(=O)N2CCN(C(C)c3nc(N4CCSC4)c4ccccc4n3)CC2)cc1 (stereo not shown) [compound 393]
  EC50: 10 to 25 µM
  Emax: > 100%

## COc1ccc(S(=O)(=O)N2CCN(C(C)c3nc4ccc(NC(C)=O)cc4c(=O)n3C)CC2)cc1 (stereo not shown) [compound 155]
  EC50: < 10 µM
  Emax: 25 to 100%

## COc1ccc(S(=O)(=O)N2CCN(C(C)c3ncc(Br)c(=O)[nH]3)CC2)cc1 (stereo not shown) [compound 378]
  EC50: 25 to 60 µM
  Emax: < 25%

## COc1ccc(S(=O)(=O)N2CCN(C(C)c3ncc(C(=O)O)c(N4CCCCC4)n3)CC2)cc1 (stereo not shown) [compound 355]
  EC50: 25 to 60 µM
  Emax: < 25%

## CCCn1c(C(C)N2CCN(S(=O)(=O)c3ccc(Br)cc3)CC2)nc2ccccc2c1=O (stereo not shown) [compound 27]
  EC50: < 10 µM
  Emax: > 100%

## CC(c1nc(N(C)C)c2ccccc2n1)N1CCN(S(=O)(=O)c2ccc(Br)cc2)CC1 (stereo not shown) [compound 220]
  EC50: 25 to 60 µM
  Emax: > 100%

## CC(c1nc2ccccc2c(=O)n1C)N(C[C@@H]1CCCCN1S(=O)(=O)c1ccc(Br)cc1)S(=O)(=O)c1ccc(Br)cc1 (stereo partly shown) [compound 204]
  EC50: 25 to 60 µM
  Emax: < 25%

## COc1ccc(S(=O)(=O)N2CCN(C(C)c3nc(Nc4ccccc4)c4ccccc4n3)CC2)cc1 (stereo not shown) [compound 366]
  EC50: < 10 µM
  Emax: 25 to 100%

## CC(c1nc2ccccc2c(=O)n1CCO)N1CCN(S(=O)(=O)c2ccc(Br)cc2)CC1 (stereo not shown) [compound 153]
  EC50: 10 to 25 µM
  Emax: 25 to 100%

## CCCn1c(C(C)N2CCN(S(=O)(=O)c3ccc(OC)cc3)CC2)nc2ccccc2c1=O (stereo not shown) [compound 22]
  EC50: < 10 µM
  Emax: > 100%

## CC(c1nc2ccccc2c(=O)n1C)N1CCN(C(=O)Nc2ccc(Cl)cc2)CC1 (stereo not shown) [compound 33]
  EC50: 25 to 60 µM
  Emax: 25 to 100%

## COc1ccc(S(=O)(=O)N2CCN(C(C)c3ncc(C(N)=O)c(N4CCCCC4)n3)CC2)cc1 (stereo not shown) [compound 356]
  EC50: 25 to 60 µM
  Emax: 25 to 100%

## COc1ccc(S(=O)(=O)N2CCN(C(C)c3nc(N4CCC5CCCCC5C4)c4ccccc4n3)CC2)cc1 (stereo not shown) [compound 327]
  EC50: < 10 µM
  Emax: > 100%

## CC(c1nc2ccccc2c(=O)n1C)N1CCCN(S(=O)(=O)c2ccc(Br)cc2)CC1 (stereo not shown) [compound 172]
  EC50: < 10 µM
  Emax: 25 to 100%

## Cc1cccc(S(=O)(=O)N2CCN(C(C)c3nc4ccc(Cl)cc4c(=O)n3C)CC2)c1 (stereo not shown) [compound 85]
  EC50: 10 to 25 µM
  Emax: 25 to 100%

## CC(c1nc2ccccc2c(=O)n1C)N1CCN(S(=O)(=O)c2ccc(Br)s2)CC1 (stereo not shown) [compound 247]
  EC50: 10 to 25 µM
  Emax: 25 to 100%

## CC(c1nc2cc(Cl)ccc2c(=O)n1C)N1CCN(S(=O)(=O)c2ccc(Br)cc2)CC1 (stereo not shown) [compound 95]
  EC50: < 10 µM
  Emax: 25 to 100%

## COc1ccc(S(=O)(=O)N2CCN(C(C)c3nccc(OC4CCCC4)n3)CC2)cc1 (stereo not shown) [compound 382]
  EC50: 10 to 25 µM
  Emax: 25 to 100%

## COc1ccc(S(=O)(=O)N(C)CCNC(C)c2nc3ccccc3c(=O)n2C)cc1 (stereo not shown) [compound 211]
  EC50: 25 to 60 µM
  Emax: < 25%

## Cc1ccc(S(=O)(=O)N2CCN(C(C)c3nc4cc(Cl)ccc4c(=O)n3C)CC2)cc1 (stereo not shown) [compound 92]
  EC50: < 10 µM
  Emax: > 100%

## COc1ccc(S(=O)(=O)N2CCN(C(C)c3nc(N4CCCCCC4)c4ccccc4n3)CC2)cc1 (stereo not shown) [compound 319]
  EC50: < 10 µM
  Emax: 25 to 100%

## COc1ccc(S(=O)(=O)N2CCN(C(C)c3nc4ccccc4c(=O)n3C)CC2)cc1OC (stereo not shown) [compound 49]
  EC50: 25 to 60 µM
  Emax: < 25%

## CC(NCCNS(=O)(=O)c1ccc(Cl)cc1)c1nc2ccccc2c(=O)n1C (stereo not shown) [compound 168]
  EC50: 25 to 60 µM
  Emax: < 25%

## COc1ccc(S(=O)(=O)N2CCN(C(C)c3nc(N4CCCC(C)C4)c4ccccc4n3)CC2)cc1 (stereo not shown) [compound 305]
  EC50: < 10 µM
  Emax: 25 to 100%

## COc1ccc(S(=O)(=O)N2CCN(C(C)c3nc(N4CC(C)CC(C)C4)c4ccccc4n3)CC2)cc1 (stereo not shown) [compound 316]
  EC50: 25 to 60 µM
  Emax: 25 to 100%

## CC(c1nc2cc(Cl)ccc2c(=O)n1C)N1CCN(C(=O)Cc2ccccc2)CC1 (stereo not shown) [compound 112]
  EC50: 10 to 25 µM
  Emax: < 25%

## COc1ccc(S(=O)(=O)N2CCN(C(C)c3nc(N(C)Cc4ccccc4)c4ccccc4n3)CC2)cc1 (stereo not shown) [compound 368]
  EC50: < 10 µM
  Emax: > 100%

## COc1ccc(S(=O)(=O)N2CCN(Cc3nc(N4CCCCC4)c4ccccc4n3)CC2)cc1 [compound 384]
  EC50: 10 to 25 µM
  Emax: > 100%
